Reference: patent US20160333419A1, “GENE SIGNATURES ASSOCIATED WITH SENSITIVITY TO MDM2 INHIBITORS” (DAIICHI SANKYO COMPANY, LIMITED, priority 2014, published 2016)

Legend:
Test in all cases: OncoPanel cytotoxicity assay
Type in all cases: cell-based
AN3 CA = conditions: Homo sapiens, 72 hour incubation
Procedure, shortened: (§1)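 Cells grown in RPMI 1640 with 10% FBS (or a special medium) at 37° C, 5% CO2 were treated 24 hours after seeding for 72 hours with 10 concentrations (3.16-fold dilutions, 0.1% DMSO final). Nuclei were dye-stained and imaged; IC50 was fit from percent of control relative cell count.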

C-4 II = conditions: Homo sapiens, 72 hour incubation
Procedure, shortened: as §1

A204 = conditions: Homo sapiens, 72 hour incubation
Procedure, shortened: as §1

NCI-H292 = conditions: Homo sapiens, 72 hour incubation
Procedure, shortened: as §1

LNCaP = conditions: Homo sapiens, 72 hour incubation
Procedure, shortened: as §1

BeWo = conditions: Homo sapiens, 72 hour incubation
Procedure, shortened: as §1

BM-1604 = conditions: Homo sapiens, 72 hour incubation
Procedure, shortened: as §1

BT-549 = conditions: Homo sapiens, 72 hour incubation
Procedure, shortened: as §1

Capan-1 = conditions: Homo sapiens, 72 hour incubation
Procedure, shortened: as §1

RD = conditions: Homo sapiens, 72 hour incubation
Procedure, shortened: as §1

CGTH-W-1 = conditions: Homo sapiens, 72 hour incubation
Procedure, shortened: as §1

BV-173 = conditions: Homo sapiens, 72 hour incubation
Procedure, shortened: as §1

BPH1 = conditions: Homo sapiens, BPH-1, 72 hour incubation
Procedure, shortened: as §1

MES-SA = conditions: Homo sapiens, 72 hour incubation
Procedure, shortened: as §1

HPAF-II = conditions: Homo sapiens, 72 hour incubation
Procedure, shortened: as §1

HuCCT1 = conditions: Homo sapiens, HuCCT-1, 72 hour incubation
Procedure, shortened: as §1

MX1 = conditions: Homo sapiens, 72 hour incubation
Procedure, shortened: as §1

SNB-19 = conditions: Homo sapiens, 72 hour incubation
Procedure, shortened: as §1

NCI-H661 = conditions: Homo sapiens, 72 hour incubation
Procedure, shortened: as §1

SW1353 = conditions: Homo sapiens, 72 hour incubation
Procedure, shortened: as §1

Calu6 = conditions: Homo sapiens, Calu-6, 72 hour incubation
Procedure, shortened: as §1

MT-3 = conditions: Homo sapiens, 72 hour incubation
Procedure, shortened: as §1

COLO 829 = conditions: Homo sapiens, 72 hour incubation
Procedure, shortened: as §1

MDA-MB-436 = conditions: Homo sapiens, 72 hour incubation
Procedure, shortened: as §1

HT-1080 = conditions: Homo sapiens, 72 hour incubation
Procedure, shortened: as §1

SK-MEL-1 = conditions: Homo sapiens, 72 hour incubation
Procedure, shortened: as §1

BxPC-3 = conditions: Homo sapiens, 72 hour incubation
Procedure, shortened: as §1

SR = conditions: Homo sapiens, 72 hour incubation
Procedure, shortened: as §1

CaOV3 = conditions: Homo sapiens, Caov-3, 72 hour incubation
Procedure, shortened: as §1

RKO = conditions: Homo sapiens, 72 hour incubation
Procedure, shortened: as §1

Daudi = conditions: Homo sapiens, 72 hour incubation
Procedure, shortened: as §1

KLE = conditions: Homo sapiens, 72 hour incubation
Procedure, shortened: as §1

SaOS2 = conditions: Homo sapiens, SAOS-2, 72 hour incubation
Procedure, shortened: as §1

Hs 294T = conditions: Homo sapiens, 72 hour incubation
Procedure, shortened: as §1

TE 381.T = conditions: Homo sapiens, 72 hour incubation
Procedure, shortened: as §1

SW684 = conditions: Homo sapiens, 72 hour incubation
Procedure, shortened: as §1

Hs 695T = conditions: Homo sapiens, 72 hour incubation
Procedure, shortened: as §1

MOLT-16 = conditions: Homo sapiens, 72 hour incubation
Procedure, shortened: as §1

Calu1 = conditions: Homo sapiens, Calu-1, 72 hour incubation
Procedure, shortened: as §1

HMCB = conditions: Homo sapiens, 72 hour incubation
Procedure, shortened: as §1

Compound: CC[C@@H]1CNC2(CC2)CN1C(=O)[C@@H]1C[C@@H](F)CN1C(=O)C1=C(C(C)C)N2C(=N[C@@](C)(c3ccc(Cl)nc3)[C@H]2c2ccc(Cl)c(F)c2)S1 [Compound A, [(5R,6S)-5-(4-Chloro-3-fluorophenyl)-6-(6-chloropyridin-3-yl)-6-methyl-3-(propan-2-yl)-5,6-dihydroimidazo[2,1-b][1,3]thiazol-2-yl][(2S,4R)-2-{[(6R)-6-ethyl-4,7-diazaspiro[2.5]oct-7-yl]carbonyl}-4-fluoropyrrolidin-1-yl]methanone]
- IC50 (AN3 CA): > 40000 nM
- IC50 (C-4 II): > 40000 nM
- IC50 (A204): 755 nM
- IC50 (NCI-H292): 479 nM
- IC50 (LNCaP): 270 nM
- IC50 (BeWo): 1490 nM
- IC50 (BM-1604): > 40000 nM
- IC50 (BT-549): > 40000 nM
- IC50 (Capan-1): > 40000 nM
- IC50 (RD): > 40000 nM
- IC50 (CGTH-W-1): > 40000 nM
- IC50 (BV-173): 601 nM
- IC50 (BPH1): > 40000 nM
- IC50 (MES-SA): 529 nM
- IC50 (HPAF-II): > 40000 nM
- IC50 (HuCCT1): > 40000 nM
- IC50 (MX1): 39000 nM
- IC50 (SNB-19): > 40000 nM
- IC50 (NCI-H661): > 40000 nM
- IC50 (SW1353): 1680 nM
- IC50 (Calu6): > 40000 nM
- IC50 (MT-3): 1130 nM
- IC50 (COLO 829): 289 nM
- IC50 (MDA-MB-436): > 40000 nM
- IC50 (HT-1080): 282 nM
- IC50 (SK-MEL-1): 207 nM
- IC50 (BxPC-3): > 40000 nM
- IC50 (SR): 257 nM
- IC50 (CaOV3): > 40000 nM
- IC50 (RKO): 654 nM
- IC50 (Daudi): 599 nM
- IC50 (KLE): > 40000 nM
- IC50 (SaOS2): > 40000 nM
- IC50 (Hs 294T): 1230 nM
- IC50 (TE 381.T): 37300 nM
- IC50 (SW684): > 40000 nM
- IC50 (Hs 695T): 1280 nM
- IC50 (MOLT-16): 236 nM
- IC50 (Calu1): > 40000 nM
- IC50 (HMCB): > 40000 nM

Compound: CC1(C)CCC2(CC1)N[C@@H](C(=O)N[C@@H]1CC[C@@H](C(N)=O)OC1)[C@H](c1ccnc(Cl)c1F)[C@]21C(=O)Nc2cc(Cl)ccc21 [Compound B, (3′R,4′S,5′R)—N-[(3R,6S)-6-carbamoyltetrahydro-2H-pyran-3-yl]-6″-chloro-4′-(2-chloro-3-fluoropyridin-4-yl)-4,4-dimethyl-2″-oxo-1″,2″-dihydrodispiro[cyclohexane-1,2′-pyrrolidine-3′,3″-indole]-5′-carboxamide]
- IC50 (AN3 CA): 8750 nM
- IC50 (C-4 II): 9100 nM
- IC50 (A204): 29.4 nM
- IC50 (NCI-H292): 34.7 nM
- IC50 (LNCaP): 64 nM
- IC50 (BeWo): 317 nM
- IC50 (BM-1604): > 10000 nM
- IC50 (BT-549): > 10000 nM
- IC50 (Capan-1): > 10000 nM
- IC50 (RD): 7200 nM
- IC50 (CGTH-W-1): 8040 nM
- IC50 (BV-173): 87.3 nM
- IC50 (BPH1): > 10000 nM
- IC50 (MES-SA): 64.1 nM
- IC50 (HPAF-II): 5790 nM
- IC50 (HuCCT1): > 10000 nM
- IC50 (MX1): 9160 nM
- IC50 (SNB-19): > 10000 nM
- IC50 (NCI-H661): 6590 nM
- IC50 (SW1353): 85.3 nM
- IC50 (Calu6): 5380 nM
- IC50 (MT-3): 164 nM
- IC50 (COLO 829): 26.6 nM
- IC50 (MDA-MB-436): > 10000 nM
- IC50 (HT-1080): 62 nM
- IC50 (SK-MEL-1): 29.3 nM
- IC50 (BxPC-3): > 10000 nM
- IC50 (SR): 26.2 nM
- IC50 (CaOV3): > 10000 nM
- IC50 (RKO): 107 nM
- IC50 (Daudi): 132 nM
- IC50 (KLE): > 10000 nM
- IC50 (SaOS2): > 10000 nM
- IC50 (Hs 294T): 3240 nM
- IC50 (TE 381.T): 9730 nM
- IC50 (SW684): > 10000 nM
- IC50 (Hs 695T): 174 nM
- IC50 (MOLT-16): 59.8 nM
- IC50 (Calu1): > 10000 nM
- IC50 (HMCB): 5490 nM
